As a reminder, the EC50 is the concentration at which the effect is half-maximal. Broadly, the CC50 is the concentration giving 50% cytotoxicity.

One series relates to HIV-1IIIB (C8166 cells). Kind of series: Anti-HIV activity in C8166 cells. It is filed as cell-based. As to conditions: for TI: TI(CC50/EC50).
In another series the test system is HIV-1IIIB(H9 cells). Kind of series: Anti-HIV activity in H9 cells. It is filed as cell-based. The following applies: for TI: TI(CC50/EC50).
A further series can be described thus: Acute toxicity test. Type of series: in vivo. As to conditions: for safety at a high dose: high dose (10g/kg); for acute toxicity test: in vivo.
The next series concerns HIV-2 ROD. Kind of series: Anti-HIV-2 activity and cytotoxicity. It is filed as cell-based.
The next series has as its system HIV-2 CBL-20. Kind of series: Anti-HIV-2 activity and cytotoxicity. Type of series: cell-based.
A short description of series [1]: Pharmacokinetics: metabolism of 67 to 46, blood concentration and bioavailability. As to conditions: after oral gavage of 67 by 100mg/kg. It is filed as in vivo.
A further series deals with H9 cells. Briefly: Cytotoxicity in H9 cells (CC50). It is filed as cell-based, human. The following applies: measured twice, average.
For a further series, the system named is C8166 cells. Kind of series: Cytotoxicity in C8166 cells (CC50). It is filed as cell-based, human. The following applies: measured twice, average.
The subject of the next series is HIV-1A17. As to conditions: HIV-1A17, NVP resistant.
In another series the test system is HIVKM018. The following applies: HIVKM018, clinical strain.
A further series deals with HIV-1TC-1. As to conditions: HIV-1TC-1, clinical strain.
Where [2] appears, read: Human immunodeficiency virus 1, C8166 cells, HIV-1IIIB, measured twice, average, read-out: EC50.
Where [3] appears, read: Human immunodeficiency virus 1, H9 cells, HIV-1IIIB, measured twice, average, read-out: EC50.
Where [4] appears, read: H9 cells, HIV-1IIIB, measured twice, average.

Values after ≈ are worked out from the molar mass of the structure shown. Values joined by “and” are separate entries in the source; they are usually repeats but may differ in a detail not shown here. Equal values may be shown once. Read-outs that look alike come from different tables or passages of the source. Where only a bound is given, the exact number is not on record here.

Procedure for HIV-1A17: (§1) The anti-HIV activity was determined by the "Guiding Principles of Anti HIV Drug Unclinical Pharmacodynamics" of SFDA which is tested by technology standard assay according to International Universal Standards and Methods. Where in CC50, EC50 were measured twice and took the average.
Procedure for HIV-1IIIB (C8166 cells): as §1
Procedure for HIV-1IIIB(H9 cells): as §1
Procedure for HIV-1TC-1: as §1
Procedure for HIVKM018: as §1

For `COc1ccccc1NC(=O)c1c(NCCN)cccc1Sc1ccc([N+](=O)[O-])cc1` [compound 78, 2-((2-aminoethyl)amino)-N-(2-methoxyphenyl)-6-((4-nitrophenyl)thio)benzamide], the EC50 in the series on HIV-1IIIB (C8166 cells) (setting [2]) was 16.9 µg/mL (≈ 38.6 µM); with HIV-1IIIB(H9 cells) (setting [3]), 19.9 µg/mL (≈ 45.4 µM).
On to `COc1ccccc1NC(=O)c1c(NC(=O)CN)cccc1S(=O)(=O)c1ccc([N+](=O)[O-])cc1.Cl.Cl` [compound 67, 2-(2-aminoacetamido)-N-(2-methoxyphenyl)-6-((4-nitrophenyl)sulfonyl)benzamide hydrochloride hydrochloride], for which the TI in the series on HIV-1IIIB (C8166 cells) (C8166 cells) is reported as 388.04; in the series on HIV-2 ROD, 161.78; in the series with HIV-1IIIB(H9 cells) (H9 cells) it was 790.58; with HIV-2 CBL-20 it was 87.82. For the same molecule, the EC50 is 0.43 µg/mL with HIV-1IIIB (C8166 cells) (setting [2]) and 0.12 µg/mL in the series with HIV-1IIIB(H9 cells) (setting [3]). The “safety at a high dose” value in the series “Acute toxicity test” was “very safe”. For the same molecule, in “Acute toxicity test”, the acute toxicity test entry was “no abnormal phenomenon occurred”. Also, the “max blood concentration of 46” value in series [1] came to 21.662 µg/mL.
`COc1ccccc1NC(=O)c1c(N)cccc1Oc1ccc([N+](=O)[O-])cc1` [compound 48, 2-amino-N-(2-methoxyphenyl)-6-(4-nitrop-henoxy)benzamide] registered a 50% effective concentration (EC50) in the series on HIV-1IIIB(H9 cells) (setting [4]) of 35.87 µg/mL (≈ 94.6 µM).
With `COc1ccccc1NC(=O)c1c(NC(=O)C(N)CCCCN)cccc1Sc1ccc([N+](=O)[O-])cc1.Cl` (centres unmarked) [compound 68, 2-(2,6-diaminohexanamido)-N-(2-methoxyphenyl)-6-((4-nitrophenyl)thio)benzamide hydrochloride], the figures for the TI with HIV-1IIIB (C8166 cells) (C8166 cells) and in the series on HIV-1IIIB(H9 cells) (H9 cells) were 122.45 and 37.85, respectively. The results for the EC50 in the series on HIV-1IIIB (C8166 cells) (setting [2]) and with HIV-1IIIB(H9 cells) (setting [3]) were 0.94 µg/mL and 2.38 µg/mL, respectively.
Consider “5-(dimethylamino)-N-(2-methoxyphenyl)-2-((4-nitrophenyl)thio)benzamide [compound 28]”, for which the EC50 in the series on HIV-1IIIB (C8166 cells) (C8166 cells, HIV-1IIIB, measured twice, average) is listed as 83.84 µg/mL; with HIV-1IIIB(H9 cells) (setting [4]) it was 98.45 µg/mL. Besides, the CC50 in the series on H9 cells was determined as 77.23 µg/mL; with C8166 cells it was 93.04 µg/mL.
With `COc1ccccc1NC(=O)c1c(NCP(=O)(OC(C)C)OC(C)C)cccc1Sc1ccc([N+](=O)[O-])cc1` [compound 65, diisopropyl(((2-((2-methoxyphenyl)carbamoyl)-3-((4-nitro-phenyl)thio)phenyl)amino)methyl)phosphonate], the TI in the series with HIV-1IIIB (C8166 cells) (C8166 cells) was determined as 0.18; in the series on HIV-1IIIB(H9 cells) (H9 cells) it was 0.13. The concentration for a half-maximal effect (EC50) was 106 µg/mL (≈ 184 µM) in the series with HIV-1IIIB (C8166 cells) (Human immunodeficiency virus 1, C8166) and more than 200 µg/mL in the series with HIV-1IIIB(H9 cells) (Human immunodeficiency virus 1, H9).
As for `COc1ccccc1NC(=O)c1c(N)cccc1S(=O)(=O)c1ccc([N+](=O)[O-])cc1` [compound 46, 2-amino-N-(2-methoxyphenyl)-6-((4-nitroph-enyl)sulfonyl)benzamide], the figures for the “TI(CC50/EC50)” value with HIV-1A17, with HIVKM018 and in the series on HIV-1TC-1 were more than 20, more than 31.65 and more than 1818.18, respectively. In addition, the TI with HIV-1IIIB (C8166 cells) (C8166 cells) is 2081.59 and 2018.59; in the series on HIV-1IIIB(H9 cells) (H9 cells), more than 303.03. In addition, the “safety at a high dose” value in the series “Acute toxicity test” is given as “very safe”. For the same molecule, the acute toxicity test entry in “Acute toxicity test” is on record as “no abnormal phenomenon occurred”.
As to `COc1ccccc1NC(=O)c1c(NCC(N)=O)cccc1Sc1ccc([N+](=O)[O-])cc1` [compound 82, 2-((2-amino-2-oxoethyl)amino)-N-(2-methoxyphenyl)-6-((4-nitrophenyl)thio)benzamide], the EC50 with HIV-1IIIB (C8166 cells) (setting [2]) and in the series on HIV-1IIIB(H9 cells) (setting [3]) was more than 200 µg/mL in each case.
For `COc1ccccc1NC(=O)c1c(N)cccc1S(=O)(=O)c1ccc(C(=O)O)cc1` [compound 77, 4-((3-amino-2-((2-methoxyphenyl)carbamoyl)phenyl)sulfonyl)benzoic acid], the concentration giving a half-maximal response (EC50) with HIV-1IIIB (C8166 cells) (setting [2]) and in the series on HIV-1IIIB(H9 cells) (setting [3]) was more than 200 µg/mL each time.
Turning to `COc1ccccc1NC(=O)c1c(NS(=O)(=O)c2ccccc2)cccc1S(=O)(=O)c1ccc([N+](=O)[O-])cc1` [compound 61, N-(2-methoxyphenyl)-2-((4-nitrophenyl)sulfonyl)-6-(phenylsulfonamido)benzamide], the 50% effective concentration (EC50) with HIV-1IIIB (C8166 cells) (setting [2]) is 46.9 µg/mL (≈ 82.7 µM); in the series on HIV-1IIIB(H9 cells) (setting [3]) it was more than 200 µg/mL.
Regarding `Nc1cccc(S(=O)(=O)c2ccc([N+](=O)[O-])cc2)c1C(=O)Nc1ccccc1I` [compound 72, 2-amino-N-(2-iodophenyl)-6-((4-nitrophenyl)sulfonyl)benzamide], the values for the half-maximal effective concentration (EC50) in the series on HIV-1IIIB (C8166 cells) (setting [2]) and with HIV-1IIIB(H9 cells) (setting [3]) were 16.2 µg/mL (≈ 30.9 µM) and 193 µg/mL (≈ 368 µM), respectively.
With `CNc1cccc(S(=O)(=O)c2ccc([N+](=O)[O-])cc2)c1C(=O)Nc1ccccc1OC` [compound 59, N-(2-methoxyphenyl)-2-(methylamino)-6-((4-nitrophenyl)sulfonyl)benzamide], the values for the EC50 in the series with HIV-1IIIB (C8166 cells) (setting [2]) and in the series on HIV-1IIIB(H9 cells) (setting [3]) were 63.7 µg/mL (≈ 144 µM) and 123 µg/mL (≈ 278 µM), respectively.
For `COc1ccccc1NC(=O)c1cc(C(F)(F)F)ccc1Sc1ccc([N+](=O)[O-])cc1` [compound 22, N-(2-methoxyphenyl)-2-((4-nitrophenyl)thio)-5-(trifluoromethyl)benzamide], the 50% effective concentration (EC50) in the series with HIV-1IIIB (C8166 cells) (setting [2]) and in the series on HIV-1IIIB(H9 cells) (setting [3]) was more than 200 µg/mL throughout.
On to `Nc1cccc(Sc2ccc([N+](=O)[O-])cc2)c1C(=O)Nc1ccccc1I` [compound 71, 2-amino-N-(2-iodophenyl)-6-((4-nitrophenyl)thio)benzamide], for which the EC50 was 61.4 µg/mL (≈ 125 µM) in the series with HIV-1IIIB (C8166 cells) (setting [2]) and more than 200 µg/mL in the series on HIV-1IIIB(H9 cells) (setting [3]).
The corresponding values for `COc1ccccc1NC(=O)c1cc(N)ccc1Sc1ccc([N+](=O)[O-])cc1` [compound 24, 5-amino-N-(2-methoxyphenyl)-2-((4-nitrophenyl)thio)benzamide] are 2.59 µg/mL (≈ 6.55 µM) and 2.62 µg/mL (≈ 6.63 µM).
Regarding `COc1ccccc1NC(=O)c1c(N(C)C)cccc1S(=O)(=O)c1ccc([N+](=O)[O-])cc1` [compound 58, 2-(dimethylamino)-N-(2-methoxyphenyl)-6-((4-nitrophenyl)sulfonyl)benzamide], the EC50 with HIV-1IIIB (C8166 cells) (setting [2]) was found to be 100 µg/mL (≈ 219 µM); in the series with HIV-1IIIB(H9 cells) (setting [3]) it was 103 µg/mL (≈ 226 µM).
For the molecule `COc1ccccc1NC(=O)c1c(NC(=O)C(N)Cc2ccccc2)cccc1S(=O)(=O)c1ccc([N+](=O)[O-])cc1` (centres unmarked) [compound 83, 2-(2-amino-3-phenylpropanamido)-N-(2-methoxyphenyl)-6-((4-nitrophenyl)sulfonyl)benzamide], the half-maximal effective concentration (EC50) with HIV-1IIIB (C8166 cells) (setting [2]) worked out at 0.45 µg/mL (≈ 0.783 µM); with HIV-1IIIB(H9 cells) (setting [3]) it was 0.15 µg/mL (≈ 0.261 µM).
Take `COc1ccccc1NC(=O)c1c(N)cccc1Sc1ccc(C(=O)O)cc1` [compound 76, 4-((3-amino-2-((2-methoxyphenyl)carbamoyl)phenyl)thio)benzoic acid]: the EC50 in the series with HIV-1IIIB (C8166 cells) (setting [2]) was 92 µg/mL (≈ 233 µM); in the series on HIV-1IIIB(H9 cells) (setting [3]), 100 µg/mL (≈ 254 µM).

The values are drawn from patent EP2924021A1, “ANTI-HIV COMPOUND AND PREPARATION METHOD AND USE THEREOF” (priority 2012, dated 2014).
